This note sets out measurements from patent US20250215029A1 (Recludix Pharma, Inc., priority 2022, published 2025).

The structures appear in SMILES notation.

In the first assay the target is T1, pY641-STAT6 in PBMC (Homo sapiens, UniProt P42226).
T1 construct: Cryopreserved Peripheral Blood Mononuclear Cells (PBMC) are from AllCells; host or cells: cryopreserved PBMC
T1 sequence (P42226 1-847): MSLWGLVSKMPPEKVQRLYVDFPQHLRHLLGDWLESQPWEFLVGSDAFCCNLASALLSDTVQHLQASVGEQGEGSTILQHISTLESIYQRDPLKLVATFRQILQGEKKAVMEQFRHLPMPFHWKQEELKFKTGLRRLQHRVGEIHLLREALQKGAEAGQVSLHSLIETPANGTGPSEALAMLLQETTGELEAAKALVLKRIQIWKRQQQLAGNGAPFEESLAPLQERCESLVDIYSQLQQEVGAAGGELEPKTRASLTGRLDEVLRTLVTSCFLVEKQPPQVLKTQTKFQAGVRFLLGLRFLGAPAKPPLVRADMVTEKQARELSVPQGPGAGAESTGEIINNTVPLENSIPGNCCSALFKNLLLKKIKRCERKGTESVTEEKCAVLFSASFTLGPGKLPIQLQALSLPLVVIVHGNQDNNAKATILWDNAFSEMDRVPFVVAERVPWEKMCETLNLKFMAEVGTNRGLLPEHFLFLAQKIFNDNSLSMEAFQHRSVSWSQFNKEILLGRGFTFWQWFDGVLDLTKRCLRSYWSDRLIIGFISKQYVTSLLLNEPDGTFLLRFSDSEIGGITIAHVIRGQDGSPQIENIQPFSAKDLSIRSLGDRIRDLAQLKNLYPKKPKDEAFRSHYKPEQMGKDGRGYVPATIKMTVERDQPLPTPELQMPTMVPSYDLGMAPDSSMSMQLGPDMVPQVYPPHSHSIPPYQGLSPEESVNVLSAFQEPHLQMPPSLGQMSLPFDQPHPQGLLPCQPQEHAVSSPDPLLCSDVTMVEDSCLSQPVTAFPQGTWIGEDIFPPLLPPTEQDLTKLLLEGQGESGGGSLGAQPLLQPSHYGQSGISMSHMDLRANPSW
The experiment in a line: MSD-pSTAT-PBMC Assay (pSTAT6, IL-4 stimulated). In kind it is cell-based. The conditions noted are these: STAT6, PBMC, compound 3 hrs, then 1 ng/mL IL-4 for 10 min; Table 115. From the text: Cryopreserved Peripheral Blood Mononuclear Cells (PBMC) are from AllCells. Recombinant Human IL-4 and IL-6 are from Peprotech. Mouse monoclonal anti-STAT3 antibody, rabbit monoclonal anti-pY705-STAT3 antibody, rabbit monoclonal Anti-pY641-STAT6 antibody, and lysis buffer are from Cell Signaling Technology (CST). Mouse monoclonal anti-STAT6 antibody is from BioLegend. Assay plates, blocker, and anti-rabbit secondary antibody are from Meso Scale Discovery (MSD).
Cyropreserved PBMCs were thawed out and allowed to recover overnight in IMDM+10% heat-inactivated FBS prior to plating 50,000 (STAT3) or 25,000 (STAT6) cells per well in 96-well U-bottom tissue culture plates. Cells were treated with compound for 3 hrs, then stimulated with 10 ng/mL IL-6 (STAT3) or 1 ng/mL IL-4 (STAT6) for 10 min. Cells were then spun down and washed with ice-cold PBS prior to lysing the cell pellet with 1× lysis buffer (CST) with 1× HALT protease and phosphatase inhibitor cocktail (Thermo). Lysates were transferred to and incubated overnight at 4° C. with shaking in QuickPlex 96-well high bind assay plates (MSD) pre-coated overnight with 30 μL per well of 0.6 μg/mL mouse monoclonal anti-STAT3 antibody (STAT3) or 2 μg/mL mouse monoclonal anti-STAT6 antibody (STAT6) in 1× PBS, and pre-blocked for 1 hour with 3% Blocker-A (MSD). Captured protein in the assay plates were then washed and probed with 25 μL per well of […] rabbit monoclonal anti-pY705-STAT3 antibody (STAT3) or 0.18 μg/ml rabbit monoclonal Anti-pY641-STAT6 antibody (STAT6) in 1% Blocker-A for 1 hour at room temperature with shaking, then washed and probed with 25 ul per well of 1 ug/ml Sulfo-TAG Labeled Goat Anti-Rabbit Antibody (MSD) in 1% Blocker-A for 1 hour at room temperature with shaking. Assay plates were then washed and 150 μL of 1× Read Buffer-T (MSD) was added to each well prior to reading on an SQ120 MSD Plate Reader. Assay signal from each sample was subtracted by the signal from unstimulated control wells and normalized to DMSO control wells. IC50 values were calculated using Graph Pad Prism Dose-Response Nonlinear Regression with variable slope. For both pSTAT3 and pSTAT6 A=≤100 nM; B 100-1000 nM; C=>1000-3000 nM; D=>3 μM; and NT=Not Tested.
Take `CCCOC(=O)[C@H](C)NP(=O)(Oc1ccccc1)C(F)c1ccc2sc(C(=O)N[C@H]3CCCC[C@H]4CCC[C@@H](C(=O)N5CC(C#N)[C@H](c6ccccc6)C5)N4C3=O)cc2c1` (relative stereo) [Compound 269, propyl (((2-(((4S,7S,11aS)-4-((rel-trans)-3-cyano-4-phenylpyrrolidine-1-carbonyl)-6-oxodecahydro-2H-pyrido[1,2-a]azocin-7-yl)carbamoyl)benzo [b]thiophen-5-yl)fluoromethyl) (phenoxy)phosphoryl)-L-alaninate]: the IC50 was below 0.1 µM.
Regarding `CCCOC(=O)[C@H](C)NP(=O)(Oc1ccccc1)C(F)c1ccc2sc(C(=O)N[C@H]3CCCCC[C@H]4[C@H](O)C[C@@H](C(=O)N5CC(C#N)[C@H](c6ccccc6)C5)N4C3=O)cc2c1` (relative stereo) [Compound 270, propyl (((2-(((1R,3S,6S,11aS)-3-((rel-trans)-3-cyano-4-phenylpyrrolidine-1-carbonyl)-1-hydroxy-5-oxodecahydro-1H-pyrrolo[1,2-a]azonin-6-yl)carbamoyl)benzo [b]thiophen-5-yl)fluoromethyl) (phenoxy)phosphoryl)-L-alaninate], the IC50 is 0.1 to 1 µM.
The same measure, in the same setting: the value for `CCCOC(=O)[C@H](C)NP(=O)(Oc1ccccc1)C(F)c1ccc2sc(C(=O)N[C@H]3CCCC[C@H]4CC[C@@H](C(=O)N5C[C@@H](C#N)[C@H](c6cccn(C)c6=O)C5)N4C3=O)cc2c1` (relative stereo) [Compound 299, propyl (((2-(((3S,6S,10aS)-3-(rel-(trans)-3-cyano-4-(1-methyl-2-oxo-1,2-dihydropyridin-3-yl)pyrrolidine-1-carbonyl)-5-oxodecahydropyrrolo [1,2-a]azocin-6-yl)carbamoyl)benzo [b]thiophen-5-yl)fluoromethyl) (phenoxy)phosphoryl)-L-alaninate] was 0.1 to 1 µM; that for `CCCOC(=O)[C@H](C)NP(=O)(Oc1ccccc1)C(F)c1ccc2sc(C(=O)N[C@H]3CCCC[C@H]4CC[C@@H](C(=O)N5C[C@H](c6cccnc6OC)[C@@H](C#N)C5)N4C3=O)cc2c1` (relative stereo) [Compound 322, propyl (((2-(((3S,6S,10aS)-3-((rel-trans)-3-cyano-4-(2-methoxypyridin-3-yl)pyrrolidine-1-carbonyl)-5-oxodecahydropyrrolo [1,2-a]azocin-6-yl)carbamoyl)benzo [b]thiophen-5-yl)fluoromethyl) (phenoxy)phosphoryl)-L-alaninate] was below 0.1 µM.
Same read-out and setting: in the case of `CCCOC(=O)[C@H](C)NP(=O)(Oc1ccccc1)[C@@H](F)c1ccc2sc(C(=O)N[C@H]3CCCC[C@H]4CC[C@@H](C(=O)N5C[C@H](c6cccc(OC(F)F)c6)C(C#N)C56CC6)N4C3=O)cc2c1` (relative stereo) [Compound 338, propyl (((R)-(2-(((3S,6S,10aS)-3-((rel-trans)-7-cyano-6-(3-(difluoromethoxy)phenyl)-4-azaspiro[2.4]heptane-4-carbonyl)-5-oxodecahydropyrrolo [1,2-a]azocin-6-yl)carbamoyl)benzo [b]thiophen-5-yl)fluoromethyl) (phenoxy)phosphoryl)-L-alaninate] it was below 0.1 µM.
On to `CCCOC(=O)[C@H](C)NP(=O)(Oc1ccccc1)C(F)c1ccc2ccc(C(=O)N[C@H]3CCCC[C@H]4CC[C@@H](C(=O)N5C[C@@H](C#N)[C@H](c6ccccc6)C5)N4C3=O)cc2c1` (single isomer, unassigned) [Compound 316], for which the IC50 is below 0.1 µM.
In turn, `CCCOC(=O)[C@H](C)NP(=O)(Oc1ccccc1)C(F)c1ccc2sc(C(=O)N[C@H]3CCCC[C@H]4CC[C@@H](C(=O)N5C[C@@H](C#N)[C@H](c6ccn(C)c(=O)c6)C5)N4C3=O)cc2c1` (single isomer, unassigned) [Compound 318] had an IC50 above 3 µM.
`CCCOC(=O)[C@H](C)NP(=O)(Oc1ccccc1)C(F)c1ccc2sc(C(=O)N[C@H]3CCCC[C@H]4CC[C@@H](C(=O)N5C[C@@H](C#N)[C@H](c6ccn(C)c(=O)c6)C5)N4C3=O)cc2c1` (single isomer, unassigned) [Compound 319] had an IC50 of 1 to 3 µM.
As for `CCCOC(=O)[C@H](C)NP(=O)(Oc1ccccc1)[C@H](F)c1ccc2sc(C(=O)N[C@H]3CCCC[C@H]4CC[C@@H](C(=O)N5C[C@@H](C#N)[C@H](c6ccccc6)C5)N4C3=O)cc2c1` (single isomer, unassigned) [Compound 321], the IC50 is below 0.1 µM.
`CCCOC(=O)[C@H](C)NP(=O)(Oc1ccccc1)[C@@H](F)c1ccc2sc(C(=O)N[C@H]3CCCC[C@H]4CC[C@@H](C(=O)N5C[C@H](c6cccc(OC)c6)[C@@H](C#N)C56CC6)N4C3=O)cc2c1` (single isomer, unassigned) [Compound 335] registered an IC50 below 0.1 µM.

The same assay, now with this note: read-out: STAT6; PBMC, compound 3 hrs, then 1 ng/mL IL-4 for 10 min; Table 115.
Turning to `CCCOC(=O)[C@H](C)NP(=O)(Oc1ccccc1)C(F)c1ccc2sc(C(=O)N[C@H]3CCCC[C@H]4CC[C@@H](C(=O)N5C[C@@H](C#N)[C@H](c6ccccc6)C5)N4C3=O)cc2c1` (single isomer, unassigned) [Compound 317], the IC50 was below 0.1 µM.

The target in a further assay is T2, pY705-STAT3 in PBMC (Homo sapiens, UniProt P40763).
T2 construct: Cryopreserved Peripheral Blood Mononuclear Cells (PBMC) are from AllCells; host or cells: cryopreserved PBMC
T2 sequence (P40763 whole entry): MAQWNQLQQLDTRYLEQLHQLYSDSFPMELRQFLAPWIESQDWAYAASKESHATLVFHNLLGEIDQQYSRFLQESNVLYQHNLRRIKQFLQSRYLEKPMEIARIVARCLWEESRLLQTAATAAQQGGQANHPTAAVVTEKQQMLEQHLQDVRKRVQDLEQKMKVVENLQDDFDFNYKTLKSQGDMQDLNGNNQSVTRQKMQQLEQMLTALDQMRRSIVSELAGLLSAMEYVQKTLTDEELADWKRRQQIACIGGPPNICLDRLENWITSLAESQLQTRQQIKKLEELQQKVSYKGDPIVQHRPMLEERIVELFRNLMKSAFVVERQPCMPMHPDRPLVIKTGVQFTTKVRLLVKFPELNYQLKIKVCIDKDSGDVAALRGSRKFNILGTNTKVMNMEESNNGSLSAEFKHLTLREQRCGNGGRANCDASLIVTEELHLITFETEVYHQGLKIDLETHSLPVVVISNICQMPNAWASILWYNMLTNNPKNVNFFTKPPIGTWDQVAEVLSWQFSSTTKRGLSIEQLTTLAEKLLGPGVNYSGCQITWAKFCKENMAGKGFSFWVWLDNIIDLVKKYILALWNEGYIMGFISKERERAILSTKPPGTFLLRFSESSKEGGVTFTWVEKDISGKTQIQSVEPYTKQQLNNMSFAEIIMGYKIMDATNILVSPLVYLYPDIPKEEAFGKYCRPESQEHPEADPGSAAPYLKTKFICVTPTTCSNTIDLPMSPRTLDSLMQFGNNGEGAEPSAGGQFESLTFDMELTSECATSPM
The experiment in a line: MSD-pSTAT-PBMC Assay (pSTAT3, IL-6 stimulated). The settings on record: PBMC, compound 3 hrs, then 10 ng/mL IL-6 for 10 min; Table 115; read-out: STAT3. In kind it is cell-based. The gist of the method: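 Human PBMCs were pretreated with compound for 3 h, then stimulated with 10 ng/mL IL-6 for 10 min. Lysate pY705-STAT3 was measured by MSD sandwich immunoassay (anti-STAT3 capture) and corrected for unstimulated background. Signal was normalized to DMSO, and IC50 came from variable-slope regression.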
As to `CC(C)CC(=O)SCCOP(=O)(OCOC(=O)O[C@H]1CCOC1)C(F)(F)c1ccc2sc(C(=O)N[C@H]3CCC[C@H]4CC[C@@H](C(=O)N5CC(c6ncccn6)C5)N4C3=O)cc2c1` (stereo partly drawn) [Compound 1099, S-(2-(((difluoro(2-(((3S,6S,9aS)-5-oxo-3-(3-(pyrimidin-2-yl)azetidine-1-carbonyl)octahydro-1H-pyrrolo[1,2-a]azepin-6-yl)carbamoyl)benzo [b]thiophen-5-yl)methyl)((((((S)-tetrahydrofuran-3-yl)oxy)carbonyl)oxy)methoxy)phosphoryl)oxy)ethyl) 3-methylbutanethioate], the IC50 was below 0.1 µM.
Same read-out and setting: the value for `COCCOCC(=O)SCCOP(=O)(OCCSC(=O)COCCOC)C(F)(F)c1ccc2sc(C(=O)N[C@H]3CCC[C@H]4CC[C@@H](C(=O)N5CC(c6cccnc6)C5)N4C3=O)cc2c1` [Compound 1102, S,S′-((((difluoro(2-(((3S,6S,9aS)-5-oxo-3-(3-(pyridin-3-yl)azetidine-1-carbonyl)octahydro-1H-pyrrolo[1,2-a]azepin-6-yl)carbamoyl)benzo [b]thiophen-5-yl)methyl)phosphoryl)bis(oxy))bis(ethane-2,1-diyl)) bis(2-(2-methoxyethoxy) ethanethioate)] was below 0.1 µM; that for `CC(C)CC(=O)SCCOP(=O)(OCOC(=O)OC1CCOCC1)C(F)(F)c1ccc2sc(C(=O)N[C@H]3CCC[C@H]4CC[C@@H](C(=O)N5CC(c6ncccn6)C5)N4C3=O)cc2c1` (stereo partly drawn) [Compound 1105, S-(2-(((difluoro(2-(((3S,6S,9aS)-5-oxo-3-(3-(pyrimidin-2-yl)azetidine-1-carbonyl)octahydro-1H-pyrrolo[1,2-a]azepin-6-yl)carbamoyl)benzo [b]thiophen-5-yl)methyl)(((((tetra-hydro-2H-pyran-4-yl)oxy)carbonyl)oxy)methoxy)phosphoryl)oxy)ethyl) 3-methylbutanethioate] was below 0.1 µM.
